From US20040115822A1, “Methods of measuring the dissolution rate of an analyte in a non-aqueous liquid composition” (priority 2002, published 2004) come the findings set out here.

The nature of the series: Solubility of CCFA as a function of pH. The class given is physicochemical. As to conditions: below pH 5. From the text: In this example, CCFA was employed as the analyte. The solubility of CCFA varies as a function of pH.

SMILES strings stand for the structures.

As for `CO/N=C(\C(=O)N[C@@H]1C(=O)N2C(C(=O)O)=C(CSC(=O)c3ccco3)CS[C@H]12)c1csc(N)n1` [CCFA, ceftiofur crystalline free acid], the “solubility of CCFA” value is “relatively insoluble”.
